Entries after “also recorded” stand apart in the source; their conditions may differ.
What was measured:
E. coli persisters = assay: E. coli persister assay (survival by c.f.u. per ml); assay type: cell-based, Escherichia coli (K12 EMG2); details: for killing of E. coli persisters by antibiotic without metabolite: antibiotic alone, no carbon source; for killing of E. coli persisters by antibiotic in the presence of mannitol: antibiotic plus 10 mM mannitol; for potentiation of gentamicin against E. coli persisters by metabolite / reduction of persister viability (killing by gentamicin induced by metabolite): metabolite plus 10 μg/mL gentamicin; for potentiation of gentamicin against E. coli persisters by metabolite / reduction of persister viability (killing by gentamicin induced by metabolite) / potentiation of gentamicin against ΔndhΔnuoI strain persisters: 2 h; for reduction of persister viability (killing by gentamicin induced by metabolite): M9 minimal media; for potentiation of gentamicin against ΔndhΔnuoI strain persisters: ΔndhΔnuoI E. coli, gentamicin plus metabolite
Experimental: (§1) For E. coli (K12 EMG2 strain) persister assays, as described herein, samples were grown to stationary phase in Luria-bertani (LB) broth. Cultures were then treated for 4 hours with 5 μg/mL ofloxacin. […] Samples were then washed with 10 mL 1× filtered PBS and re-suspended in M9 minimal media. Metabolites (Glucose, mannitol, fructose, and pyruvate) and aminoglycoside antibiotics (10 μg/mL gentamicin, 50 μg/mL streptomycin, and 30 μg/mL kanamycin) were added, and samples were incubated at 37° C., 300 RPM, and 80% humidity. Resuspension of samples in defined minimal media allowed precise and specific testing of the effect of different metabolites on persister viability, without the possible confounding factors that a more complex media would present. For S. aureus persister (ATCC 25923 strain) experiments, cells were grown at 37° C. and 300 RPM in LB broth to an OD600 of 0.3. Cells were then diluted 1:1000 in 25 mL LB and grown for 16 hours at 37° C. and 300 RPM in 250 mL flasks. Cultures were treated with carbon source and antibiotic. Previous work has shown that, approximately all, stationary phase S. aureus cells are persistent.
At specified time points, 10 μL aliquots of samples were removed, serially diluted, and spot-plated onto LB agar plates to determine colony forming units/mL (CFU/mL). Only dilutions that yielded between 10-100 colonies were counted. Survival was determined by dividing a replicate's CFU/mL at each time point by the initial CFU/mL for the replicate.
Given the dormancy of bacterial persisters and the known energy requirement for aminoglycoside activity^16, we tested whether metabolic stimulation could potentiate the efficacy of aminoglycosides against bacterial persisters. To test this, we screened metabolites for their ability to potentiate aminoglycosides against E. coli persisters. We selected carbon sources to maximize coverage of glycolysis, the pentose-phosphate pathway (PPP) and the Entner-Doudoroff pathway (EDP) (FIGS. 1A, 1B). Bacterial persisters were isolated (as described under “Methods”), re-suspended in minimal media supplemented with individual metabolites and then treated for 2 hours with the aminoglycoside gentamicin.
The following concentrations of carbon sources were used in this study: 10 mM glucose, 10 mM mannitol, 10 mM fructose, 20 mM glycerol, 30 mM glycolate, 10 mM galactarate, 20 mM pyruvate, 10 mM gluconate, 12 mM arabinose and 12 mM ribose. 10 mM acetate was used as a supplement and 30 mM acetate was used as a potentiating metabolite in control experiments. Carbon sources were purchased from Sigma or Fisher. In E. coli persister assays, samples were re-suspended in M9 minimal media salts plus a carbon source. In all experiments using CCCP, samples were pre-treated for 5 min with the proton ionophore before antibiotic addition.
For E. coli persister assays, samples were grown to stationary phase as described above. Cultures were then treated for 4 h with 5 μg ml^−1 ofloxacin in the above-stated growth conditions. […] Samples were then washed with 10 ml of 1× filtered PBS and re-suspended in M9 minimal media. Carbon sources and antibiotics were added and samples were incubated at 37° C. 300 r.p.m. and 80% humidity. Re-suspension of samples in defined minimal media allowed us to test the effects of different carbon sources on persister viability precisely and specifically, without the possible confounding factors that a more complex medium would present. For S. aureus persister experiments, cells were grown at 37° C. and 300 r.p.m. in LB broth to an OD600 of 0.3. Cells were then diluted 1:1,000 in 25 ml LB and grown for 16 h at 37° C. and 300 r.p.m. in 250 ml flasks before treatment with a carbon source and antibiotic. Previous work has shown that almost all stationary-phase S. aureus cells are persistent^25.
At specified time points, 10-μl aliquots of samples were removed, serially diluted and spot-plated onto LB agar plates to determine colony-forming units per ml (c.f.u. ml^−1). […]

[1] = test system: uropathogenic E. coli biofilms; assay: Mouse chronic urinary tract infection assay; assay type: in vivo, mice (BALB/c); details: i.v. twice daily for 3 days; gentamicin 1 mg/kg, mannitol 1.5 g/kg
Experimental: Female Charles River Balb/C mice (weighing 22-26 g) received surgical implantation in the urinary tract of 6 mm PESO catheter tubing that had been incubated in cultures of uropathogenic E. coli for 24 hours to form biofilms. Forty-eight hours after surgery, mice received no treatment or twice-daily, intravenous treatment with gentamicin (1 mg/Kg) or mannitol (1.5 g/Kg) and gentamicin (1 mg/Kg) for three days. Seven to eight mice were included in each group. Twenty-four hours after the last treatment, catheter tubing was extracted to determine biofilm viability and kidneys were removed to determine bacterial load.
To determine the clinical relevance of metabolic potentiation of aminoglycosides in vivo, we tested the ability of gentamicin in combination with mannitol to treat chronic, biofilm-associated infection in a mouse model. Catheters colonized with uropathogenic E. coli biofilms were implanted in the urinary tracts of mice (FIG. 3D). Two days after surgery, mice received either no treatment or intravenous treatment with gentamicin or gentamicin and mannitol for 3 days, after which the catheters were removed and biofilm viability was determined. Gentamicin alone had no effect, whereas gentamicin in combination with mannitol reduced the viability of the catheter biofilms by nearly 1.5 orders of magnitude (FIG. 3D). […]

S. aureus persisters = assay: S. aureus persister assay; assay type: cell-based, Staphylococcus aureus (ATCC 25923)
Experimental: as §1, with “Previous work has shown that, approximately all, stationary phase S. aureus cells are persistent.” left out
At specified time points, 10-μl aliquots of samples were removed, serially diluted and spot-plated onto LB agar plates to determine colony-forming units per ml (c.f.u. ml^−1). Only dilutions that yielded 10-100 colonies were counted Survival was determined by dividing the c.f.u. ml^−1 of a sample at each time point by the initial c.f.u. ml^−1 for that sample.

[2] = test system: stationary-phase E. coli cells; assay type: cell-based, Escherichia coli
Experimental: Given that aminoglycoside uptake is energy-dependent^16, we investigated whether the metabolic stimuli screened here could increase aminoglycoside uptake. We measured uptake by fluorescently labelling gentamicin with Texas red and analyzing cells by fluorescence-activated cell sorting (FACS). Cells were pre-incubated with metabolites for 30 min before a 5-min treatment with gentamicin-Texas red (FIG. 1D and FIG. 14).
Gentamicin-Texas red was made as previously described^27. At 4° C., 1 mg of Texas red (Invitrogen) was dissolved in 50 μl of high-quality anhydrous N,N-dimethylformamide. The dissolved Texas red was added slowly to 2.3 ml of 10 mg ml^−1 gentamicin solution in 100 mM K2CO3 at 4° C.
Uptake of gentamicin-Texas red induced by carbon sources in stationary-phase cells was determined by adding concentrated carbon sources (see section on media and growth conditions for concentrations) to stationary-phase cultures and incubating them for 30 min at 37° C., 300 r.p.m. and 80% humidity. Concentrated gentamicin-Texas red was then added to a final concentration of 10 μg ml^−1 and samples were incubated for 5 min. 100 μl of each sample was then washed with 1 ml of PBS and re-suspended in 1 ml of PBS. […] Samples were analysed on a BD FACS Aria II flow cytometer with the following settings: mCherry voltage, 650 V; FSC threshold, 1,000; recorded events, 100,000; gated-out mCherry events. <30.

## CC1(C)S[C@@H]2[C@H](NC(=O)[C@H](N)c3ccccc3)C(=O)N2[C@H]1C(=O)O [ampicillin]
E. coli persisters
  killing of E. coli persisters by antibiotic without metabolite: none of the bactericidal antibiotics used in this study (ofloxacin, ampicillin, and gentamicin) caused killing of cells; also recorded: neither the β-lactam ampicillin nor the quinolone ofloxacin showed appreciable killing
  killing of E. coli persisters by antibiotic in the presence of mannitol: neither the β-lactam ampicillin nor the quinolone ofloxacin showed appreciable killing

## O=C[C@@H](O)[C@H](O)[C@H](O)CO [arabinose]
E. coli persisters
  potentiation of gentamicin against E. coli persisters by metabolite: low potentiation

## gentamicin
E. coli persisters
  killing of E. coli persisters by antibiotic without metabolite: none of the bactericidal antibiotics used in this study (ofloxacin, ampicillin, and gentamicin) caused killing of cells; also recorded: No killing
  killing of E. coli persisters by antibiotic in the presence of mannitol: rapidly eliminated
[1]
  reduction of viability of catheter biofilms: no effect

## O=C(CO)[C@@H](O)[C@H](O)[C@H](O)CO [fructose]
E. coli persisters
  reduction of persister viability (killing by gentamicin induced by metabolite): three orders of magnitude
  potentiation of gentamicin against ΔndhΔnuoI strain persisters: not potentiated
S. aureus persisters; gentamicin and fructose, with or without CCCP, 4 h
  PMF dependence of fructose potentiation in S. aureus: requires PMF generation; also recorded: PMF-dependent killing

## N#CC(C#N)=NNc1cccc(Cl)c1 [CCCP, carbonyl cyanide m-chlorophenyl hydrazone]
E. coli persisters; 20 μM CCCP pre-incubation, 10 μg/mL gentamicin plus carbon sources
  effect of CCCP on metabolite potentiation of gentamicin: abolish aminoglycoside potentiation by all of the carbon sources; also recorded: abolishes metabolite-enabled potentiation
[2]; 20 μM CCCP, 10 μg/mL Gent-TR, 30 min on carbon source
  effect of CCCP on metabolite-induced gentamicin-Texas red uptake: suppressed the metabolite-induced uptake of aminoglycoside

## O=C(O)CO [glycolate]
[2]; 30 mM glycolate, stationary phase E. coli
  uptake of Texas Red probe: affects the uptake of Texas Red probe

## O=C(O)[C@H](O)[C@@H](O)[C@H](O)[C@H](O)CO [gluconate]
E. coli persisters
  potentiation of gentamicin against E. coli persisters by metabolite: low potentiation

## O=C[C@H](O)[C@H](O)[C@H](O)CO [ribose]
E. coli persisters
  potentiation of gentamicin against E. coli persisters by metabolite: low potentiation

## [H]/N=C(/N)N[C@H]1[C@H](O)[C@@H](O)[C@H](O[C@@H]2O[C@@H](C)[C@](O)(C=O)[C@H]2O[C@@H]2O[C@@H](CO)[C@H](O)[C@@H](O)[C@@H]2NC)[C@@H](N/C(N)=N\[H])[C@@H]1O [streptomycin]
E. coli persisters
  killing of E. coli persisters by antibiotic without metabolite: no appreciable killing
E. coli persisters; plus glucose, mannitol or fructose, 30 μg/mL kanamycin, 50 μg/mL streptomycin
  aminoglycoside activity against E. coli persisters with upper-glycolytic metabolites: greatly enabled

## OC[C@@H](O)[C@@H](O)[C@H](O)[C@H](O)CO [mannitol]
E. coli persisters
  reduction of persister viability (killing by gentamicin induced by metabolite): three orders of magnitude
  potentiation of gentamicin against ΔndhΔnuoI strain persisters: not potentiated
S. aureus persisters
  potentiation of gentamicin against S. aureus persisters by metabolite: little potentiation

From patent US10660911B2, “Proton-motive force stimulation to potentiate aminoglycoside antibiotics against persistent bacteria” (TRUSTEES OF BOSTON UNIVERSITY, priority 2011, dated 2020)
